# Data taken from publication PMC5318439, “The Novel Toll-Like Receptor 2 Agonist SUP3 Enhances Antigen Presentation and T Cell Activation by Dendritic Cells” (Frontiers in Immunology, 2017).
# Where a SMILES comes first, the peptide text is derived from it. The star is where a group is joined. X1 = CCCCCCCCCCCCCCNC(=O)OC[C@H](C*)OC(=O)NCCCCCCCCCCCCCC; Palmitoyl = CCCCCCCCCCCCCCCC(=O)*
# Columns and labels:
# [1] = test system: OVA-specific CD8^+ T cells; assay: OCS immunization, OVA-specific CD8+ T cells (CTL induction) in spleen; assay type: in vivo, C57BL/6 mice; details: 10 nmol, data not shown; for CTL induction at high dose: OCS immunization; for spleen size at high dose: mice
# Procedure: Splenocytes were X-ray irradiated (1500 Rad) and then coated with OVA (1 mg per spleen) in RPMI 1640 medium (Gibco 11875-119) for 30 min at 37°C. Cells were washed twice with RPMI 1640 medium. […] Seven days post-immunization, OVA-specific CD8^+ T cells in spleen were analyzed by flow cytometry by staining with fluorescence-conjugated antibodies against CD19 (eBioscinece, clone 1D3), CD3 (eBioscinece, clone 145-2C11), CD8 (eBioscinece, clone 53-6.7), and SIINFEKL/H-2Kb-Pentamer (ProImmune F093-4A).
# Figure 2 SUP3 induced more vigorous cytotoxic T lymphocytes (CTLs) responses than Pam3CSK4 without excessive production of inflammatory cytokines in vivo. […] The percentages of pentamer positive cells (CD19^− CD3^+ CD8^+ SIINFEKL/H-2Kb-Pentamer^+) in spleens, i.e., the OVA-specific CD8^+ T cells, were determined by flow cytometry (A) and the statistic calculation is presented in (B). Representative data from three independent experiments with three mice in each group were presented. (C,D) Mice were immunized as in (A) for 30 days, then inoculated with OVA-expressing B16 melanoma cells (B16-OVA) (5 × 10^5 cells per mouse) by i.v. injection and analyzed for metastatic tumor formation in the lung 16 days after inoculation. Data from two independent experiments with three mice in each group were shown. […] “n.d.” indicates “not detected.” *p < 0.05, **p < 0.01. TEXT PRINTED IN THE PICTURE: (A) Pam3: Pentamer^+ (% of CD8^+ T): 1.57 (OCS) | (A) SUP3: Pentamer^+ (% of CD8^+ T): 2.98 (OCS) | (E) Pam3: IL-12p40 (ng/mL): n.d | (E) SUP3: IL-12p40 (ng/mL): n.d DOUBTS OF THE COPYIST ABOUT THIS PICTURE: Panel A also prints 0.37 for the control Non and 0.72 for the vehicle control PBS (OCS). Both are left out because they are controls, not test substances. / Panel E prints n.d for the vehicle control PBS in all four plots. These are left out for the same reason.
# RAW 264.7 cells = assay: TNFα production by WT RAW 264.7 cells; assay type: cell-based; details: 500 nM, 8 h
# Procedure: Splenic DCs (5 × 10^5 cells/mL) were stimulated by Pam3 (200 nM), SUP3 (200 nM), or CpG ODN 1668 (20 nM; Adipogen IAX-200-001) in the GM-CSF (20 ng/mL) supplemented medium for indicated periods. Cell culture supernatants were harvested at indicated time points and stored at −40°C. […] For in vivo administration, Pam3 (2 nmol per mouse), SUP3 (2 nmol per mouse), or LPS (1 µg per mouse) were intravenously (i.v.) injected via tail veins. Serum was obtained through tail vein bleeding and centrifuged after coagulation and stored at −40°C. Cytokines (IL-6, eBioscience 88-7064; TNFα, eBioscience 88-7324; IL-12p40, BioLegend 431604), chemokine (MIP1α, R&D Systems DY450-05), and total IgM (eBioscience, 88-50470) were quantified by ELISA kits following the instructions of manufacturers.
# Figure 1 Specificity and activity of novel TLR2 agonist SUP3. (A) Schematic chemical structure of SUP3. (B) Surface expression of TLR2 in wild-type (WT) and Tlr2^−/− RAW 264.7 cell lines. Gray shadows represented isotype control and black lines represented TLR2. (C) TNFα production by RAW 264.7 cells upon stimulation with lipopolysaccharide (LPS) (1 µg/mL), Pam3CSK4 (Pam3 hereafter) (500 nM), or SUP3 (500 nM) for 8 h. […] The production of cytokines IL-6 and TNFα in culture supernatant was determined by ELISA. *p < 0.05, ****p < 0.0001, “n.s.” indicates statistically non-significant.
# GMDCs = assay: Cytokine production by GMDCs; assay type: cell-based, mice; details: 200 nM, 24 h, ELISA; SUP3 versus Pam3
# Procedure: Splenic DCs (5 × 10^5 cells/mL) were stimulated by Pam3 (200 nM), SUP3 (200 nM), or CpG ODN 1668 (20 nM; Adipogen IAX-200-001) in the GM-CSF (20 ng/mL) supplemented medium for indicated periods. Cell culture supernatants were harvested at indicated time points and stored at −40°C. RAW 264.7 cells and GMDCs were stimulated by lipopolysaccharide (LPS) (20 ng/mL; Adipogen IAX-100-013), Pam3, or SUP3 (both at 200 nM) for 24 h. For in vivo administration, Pam3 (2 nmol per mouse), SUP3 (2 nmol per mouse), or LPS (1 µg per mouse) were intravenously (i.v.) injected via tail veins. Serum was obtained through tail vein bleeding and centrifuged after coagulation and stored at −40°C. Cytokines (IL-6, eBioscience 88-7064; TNFα, eBioscience 88-7324; IL-12p40, BioLegend 431604), chemokine (MIP1α, R&D Systems DY450-05), and total IgM (eBioscience, 88-50470) were quantified by ELISA kits following the instructions of manufacturers.
# Figure 1 Specificity and activity of novel TLR2 agonist SUP3. (A) Schematic chemical structure of SUP3. (B) Surface expression of TLR2 in wild-type (WT) and Tlr2^−/− RAW 264.7 cell lines. Gray shadows represented isotype control and black lines represented TLR2. […] The production of cytokines IL-6 and TNFα in culture supernatant was determined by ELISA. *p < 0.05, ****p < 0.0001, “n.s.” indicates statistically non-significant.
Compound,CTL induction at high dose [1],spleen size at high dose [1],TNFα production by WT RAW cells (RAW 264.7 cells),production of IL-6 and TNFα by GMDCs (GMDCs)
Pam3CSK4 [reference compound],did not have the same effect,did not have the same effect,large amount of TNFα production,
"CCCCCCCCCCCCCCCC(=O)N[C@@H](CSC[C@@H](COC(=O)NCCCCCCCCCCCCCC)OC(=O)NCCCCCCCCCCCCCC)C(=O)NCC(=O)N[C@@H](CCCCN)C(=O)N[C@@H](CCCCN)C(=O)N[C@@H](CCCCN)C(=O)O [SUP3, (2S,5S,8S,14R,18R)-2,5,8-tris(4-aminobutyl)-4,7,10,13,21-pentaoxo-14-palmitamido-18-((tetradecylcarbamoyl)oxy)-20-oxa-16-thia-3,6,9,12,22-pentaazahexatriacontan-1-oic acid] (Palmitoyl-C(X1)GKKK-OH)",decreased CTL induction,enlarged spleens,large amount of TNFα production,comparable
